Test system: human keratinocytes
Assay: Inhibition of apoptosis induced by growth factor deficiency, cell count and BrdU ELISA of cytoplasmic DNA fragments
Format: cell-based
Details: 30 ng/ml, percent of control
Protocol: The ability of the plant extracts of Cassia alata to prevent apoptosis induced by a deficiency of growth factors in human skin cells was investigated. The test was conducted in vitro on human fibroblasts and human keratinocytes. The human cells were cultivated in a nutrient medium (DMEM=Dulbecco […] from Life Technologie S.a.r.l.) containing 10% of foetal calf serum (from Dutcher). Bromodeoxyuridine (BrdU) was added to this nutrient medium. It was incorporated in the DNA and was subsequently used to detect the DNA fragments in the cytoplasm. After two days' incubation, the nutrient medium was replaced by nutrient medium (DMEM) with no foetal calf serum. The active substance to be tested was added. […] For comparison, a cell sample was incubated without any active substance to be tested (quantities and concentrations shown in Tables 5 and 6).
After incubation for one or two days at 37° C., the cells were recovered by trypsination using the Dunnebacke and Zitcer method described in Cell and Tissue Culture, Ed.: J. Paul, Churchill Livingstone, 1975, p. […] After the trypsin treatment, the cells were centrifuged and counted. The BrdU content in DNA fragments from the cytoplasm was then determined by the ELISA Test (ELISA Kit from Roche). […]

EGF: known growth factor Epidermal Growth Factor, polypeptide of 53 amino acids
Cell counting: 121% | Content of DNA fragments in the cytoplasm: 32%

— patent US8535731B2, “Use of extracts of the Cassia alata plant” (BASF Beauty Care Solutions France S.A.S., priority 2000, dated 2013)
